{
  "source": "ChEMBL document CHEMBL6134788",
  "about": "“Development of naphthalimide hydrazide derivatives as potent antibacterial agents against carbapenem-resistant A. baumannii” (RSC Med Chem, 2024)",
  "key": {"Klebsiella pneumoniae": {"test_system": "Klebsiella pneumoniae", "assay": "Antibacterial activity against Klebsiella pneumoniae BAA 1705 assessed as inhibition of bacterial growth incubated for 16 to 18 hrs by CLSI protocol based method", "format": "functional", "details": "time 16-18 hrs, read-out: MIC100"}, "[1]": {"assay": "Cytotoxicity against African green monkey Vero cells assessed as reduction in cell viability incubated for 72 hrs by MTT assay", "format": "toxicity, cell-based", "details": "chlorocebus sabaeus"}, "[2]": {"assay": "Selectivity index, ratio of CC50 for cytotoxicity against African green monkey VERO cells to MIC for antibacterial activity against carbapenem-resistant Acinetobacter baumannii BAA 1605 assessed as inhibition of bacterial growth", "format": "toxicity, cell-based", "details": "read-out: Selectivity Index"}, "Acinetobacter baumannii [3]": {"test_system": "Acinetobacter baumannii", "assay": "Antibacterial activity against multi-drug resistant Acinetobacter baumannii NR-17777 assessed as inhibition of bacterial growth incubated for 16 to 18 hrs by CLSI protocol based method", "format": "functional", "details": "time 16-18 hrs, read-out: MIC100"}, "Acinetobacter baumannii [4]": {"test_system": "Acinetobacter baumannii", "assay": "Antibacterial activity against multi-drug resistant Acinetobacter baumannii 5-032 assessed as inhibition of bacterial growth incubated for 16 to 18 hrs by CLSI protocol based method", "format": "functional", "details": "time 16-18 hrs, read-out: MIC100"}, "Acinetobacter baumannii [5]": {"test_system": "Acinetobacter baumannii", "assay": "Antibacterial activity against multi-drug resistant Acinetobacter baumannii 5-109 assessed as inhibition of bacterial growth incubated for 16 to 18 hrs by CLSI protocol based method", "format": "functional", "details": "time 16-18 hrs, read-out: MIC100"}, "Acinetobacter baumannii [6]": {"test_system": "Acinetobacter baumannii", "assay": "Antibacterial activity against multi-drug resistant Acinetobacter baumannii BC-5 assessed as inhibition of bacterial growth incubated for 16 to 18 hrs by CLSI protocol based method", "format": "functional", "details": "time 16-18 hrs, read-out: MIC100"}, "Acinetobacter baumannii [7]": {"test_system": "Acinetobacter baumannii", "assay": "Antibacterial activity against multi-drug resistant Acinetobacter baumannii Naval-17 assessed as inhibition of bacterial growth incubated for 16 to 18 hrs by CLSI protocol based method", "format": "functional", "details": "time 16-18 hrs, read-out: MIC100"}, "Acinetobacter baumannii [8]": {"test_system": "Acinetobacter baumannii", "assay": "Antibacterial activity against multi-drug resistant Acinetobacter baumannii Naval-18 assessed as inhibition of bacterial growth incubated for 16 to 18 hrs by CLSI protocol based method", "format": "functional", "details": "time 16-18 hrs, read-out: MIC100"}, "Acinetobacter baumannii [9]": {"test_system": "Acinetobacter baumannii", "assay": "Antibacterial activity against multi-drug resistant Acinetobacter baumannii WL-136 assessed as inhibition of bacterial growth incubated for 16 to 18 hrs by CLSI protocol based method", "format": "functional", "details": "time 16-18 hrs, read-out: MIC100"}, "Acinetobacter baumannii [10]": {"test_system": "Acinetobacter baumannii", "assay": "Antibacterial activity against Acinetobacter baumannii ATCC 17978 assessed as inhibition of bacterial growth incubated for 16 to 18 hrs by CLSI protocol based method", "format": "functional", "details": "time 16-18 hrs, read-out: MIC100"}, "Acinetobacter baumannii [11]": {"test_system": "Acinetobacter baumannii", "assay": "Antibacterial activity against carbapenem-resistant Acinetobacter baumannii BAA 1605 assessed as inhibition of bacterial growth incubated 24 hrs in presence of polymyxin B by checkerboard method", "format": "functional"}, "Acinetobacter baumannii [12]": {"test_system": "Acinetobacter baumannii", "assay": "Antibacterial activity against carbapenem-resistant Acinetobacter baumannii BAA 1605 assessed as inhibition of bacterial growth by measuring levofloxacin MIC incubated 24 hrs by checkerboard method", "format": "functional"}, "Acinetobacter baumannii [13]": {"test_system": "Acinetobacter baumannii", "assay": "Antibacterial activity against carbapenem-resistant Acinetobacter baumannii BAA 1605 assessed as inhibition of bacterial growth by measuring minocycline MIC incubated 24 hrs by checkerboard method", "format": "functional"}, "Acinetobacter baumannii [14]": {"test_system": "Acinetobacter baumannii", "assay": "Antibacterial activity against carbapenem-resistant Acinetobacter baumannii BAA 1605 assessed as inhibition of bacterial growth by measuring polymyxin B MIC incubated 24 hrs by checkerboard method", "format": "functional"}, "Acinetobacter baumannii [15]": {"test_system": "Acinetobacter baumannii", "assay": "Antibacterial activity against carbapenem-resistant Acinetobacter baumannii BAA 1605 assessed as inhibition of bacterial growth by measuring rifampicin MIC incubated 24 hrs by checkerboard method", "format": "functional"}, "Acinetobacter baumannii [16]": {"test_system": "Acinetobacter baumannii", "assay": "Synergistic antibacterial activity against carbapenem-resistant Acinetobacter baumannii BAA 1605 assessed as inhibition of bacterial growth by measuring tobramycin MIC incubated 24 hrs by checkerboard method", "format": "functional"}, "Acinetobacter baumannii [17]": {"test_system": "Acinetobacter baumannii", "assay": "Antibacterial activity against carbapenem-resistant Acinetobacter baumannii BAA 1605 assessed as inhibition of bacterial growth by measuring fractional inhibitory concentration incubated 24 hrs in presence of levofloxacin by checkerboard method", "format": "functional"}, "Acinetobacter baumannii [18]": {"test_system": "Acinetobacter baumannii", "assay": "Synergistic antibacterial activity against carbapenem-resistant Acinetobacter baumannii BAA 1605 assessed as inhibition of bacterial growth by measuring fractional inhibitory concentration incubated 24 hrs in presence of tobramycin by checkerboard method", "format": "functional"}, "Acinetobacter baumannii [19]": {"test_system": "Acinetobacter baumannii", "assay": "Antibacterial activity against carbapenem-resistant Acinetobacter baumannii BAA 1605 assessed as polymyxin B MIC by measuring fractional inhibitory concentration incubated 24 hrs by checkerboard method relative to polymyxin B alone", "format": "functional"}, "Acinetobacter baumannii [20]": {"test_system": "Acinetobacter baumannii", "assay": "Antibacterial activity against carbapenem-resistant Acinetobacter baumannii BAA 1605 assessed as rifampicin MIC by measuring fractional inhibitory concentration incubated 24 hrs by checkerboard method relative to rifampicin alone", "format": "functional"}},
  "data": [
    {"smiles": "O=C(CCN1C(=O)c2cccc3cccc(c23)C1=O)NNc1ccc(Br)cc1", "values": [
      {"measurement": "MIC", "setting": "Klebsiella pneumoniae", "result": "> 64", "unit": "µg/mL"},
      {"measurement": "CC50 at 72 h", "setting": "[1]", "result": "> 100", "unit": "µg/mL"},
      {"measurement": "selectivity ratio", "setting": "[2]", "result": "> 200"},
      {"measurement": "MIC", "setting": "Acinetobacter baumannii [3]", "result": 0.5, "unit": "µg/mL"},
      {"measurement": "MIC", "setting": "Acinetobacter baumannii [4]", "result": 0.5, "unit": "µg/mL"},
      {"measurement": "MIC", "setting": "Acinetobacter baumannii [5]", "result": 0.5, "unit": "µg/mL"},
      {"measurement": "MIC", "setting": "Acinetobacter baumannii [6]", "result": 0.5, "unit": "µg/mL"},
      {"measurement": "MIC", "setting": "Acinetobacter baumannii [7]", "result": 1, "unit": "µg/mL"},
      {"measurement": "MIC", "setting": "Acinetobacter baumannii [8]", "result": 0.5, "unit": "µg/mL"},
      {"measurement": "MIC", "setting": "Acinetobacter baumannii [9]", "result": 0.5, "unit": "µg/mL"},
      {"measurement": "MIC", "setting": "Acinetobacter baumannii [10]", "result": 0.5, "unit": "µg/mL"},
      {"measurement": "MIC", "setting": "Acinetobacter baumannii [11]", "result": 0.25, "unit": "µg/mL"},
      {"measurement": "MIC", "setting": "Acinetobacter baumannii [12]", "result": 8, "unit": "µg/mL"},
      {"measurement": "MIC", "setting": "Acinetobacter baumannii [13]", "result": 4, "unit": "µg/mL"},
      {"measurement": "MIC", "setting": "Acinetobacter baumannii [14]", "result": 0.25, "unit": "µg/mL"},
      {"measurement": "MIC", "setting": "Acinetobacter baumannii [15]", "result": 2, "unit": "µg/mL"},
      {"measurement": "MIC", "setting": "Acinetobacter baumannii [16]", "result": 1, "unit": "µg/mL"},
      {"measurement": "FIC", "setting": "Acinetobacter baumannii [17]", "result": 1},
      {"measurement": "FIC", "setting": "Acinetobacter baumannii [18]", "result": 0.25},
      {"measurement": "FIC", "setting": "Acinetobacter baumannii [19]", "result": 0.5},
      {"measurement": "FIC", "setting": "Acinetobacter baumannii [20]", "result": 0.5}
    ]}
  ]
}
